Consider one compound from publication PMC5581033, “Targeting aldehyde dehydrogenase activity in head and neck squamous cell carcinoma with a novel small molecule inhibitor” (Oncotarget, 2017).

Structures are written as SMILES.

Common to all, as to assay: purified recombinant isozyme activity assay, NADH formation at […] nm with acetaldehyde and NAD+
What all share (type): biochemical

One test deals with T1, ALDH3A1 (Homo sapiens, UniProt P30838).
T1 sequence (P30838 2-453): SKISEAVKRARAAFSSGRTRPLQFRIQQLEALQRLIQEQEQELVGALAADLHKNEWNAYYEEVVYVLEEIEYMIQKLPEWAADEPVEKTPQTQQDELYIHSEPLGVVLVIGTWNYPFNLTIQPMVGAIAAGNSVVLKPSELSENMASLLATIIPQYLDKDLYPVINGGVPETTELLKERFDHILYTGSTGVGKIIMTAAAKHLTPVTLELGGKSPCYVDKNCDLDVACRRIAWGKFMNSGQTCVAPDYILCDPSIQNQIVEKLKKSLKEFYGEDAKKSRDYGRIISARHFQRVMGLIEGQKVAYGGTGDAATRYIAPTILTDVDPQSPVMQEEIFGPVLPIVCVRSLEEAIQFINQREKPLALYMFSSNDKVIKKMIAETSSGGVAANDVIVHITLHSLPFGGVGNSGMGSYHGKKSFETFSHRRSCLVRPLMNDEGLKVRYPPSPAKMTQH

The next test addresses T2, ALDH2 (Homo sapiens, UniProt P05091).
T2 sequence (P05091 18-517): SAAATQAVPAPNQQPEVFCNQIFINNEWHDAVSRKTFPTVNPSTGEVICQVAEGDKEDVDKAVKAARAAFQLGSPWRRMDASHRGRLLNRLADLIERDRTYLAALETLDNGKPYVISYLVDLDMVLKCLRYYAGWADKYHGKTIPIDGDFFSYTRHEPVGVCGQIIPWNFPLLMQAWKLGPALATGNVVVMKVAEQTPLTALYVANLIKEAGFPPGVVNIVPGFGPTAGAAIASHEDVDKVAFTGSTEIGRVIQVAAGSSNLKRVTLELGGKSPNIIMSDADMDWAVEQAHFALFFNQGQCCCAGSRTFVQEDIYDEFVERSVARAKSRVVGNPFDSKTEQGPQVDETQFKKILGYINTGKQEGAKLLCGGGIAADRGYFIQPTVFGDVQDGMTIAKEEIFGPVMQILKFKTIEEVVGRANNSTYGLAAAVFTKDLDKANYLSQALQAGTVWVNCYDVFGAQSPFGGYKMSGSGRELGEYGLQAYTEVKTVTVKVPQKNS

A further test has as its target T3, ALDH1A1 (Homo sapiens, UniProt P00352).
T3 sequence (P00352 2-501): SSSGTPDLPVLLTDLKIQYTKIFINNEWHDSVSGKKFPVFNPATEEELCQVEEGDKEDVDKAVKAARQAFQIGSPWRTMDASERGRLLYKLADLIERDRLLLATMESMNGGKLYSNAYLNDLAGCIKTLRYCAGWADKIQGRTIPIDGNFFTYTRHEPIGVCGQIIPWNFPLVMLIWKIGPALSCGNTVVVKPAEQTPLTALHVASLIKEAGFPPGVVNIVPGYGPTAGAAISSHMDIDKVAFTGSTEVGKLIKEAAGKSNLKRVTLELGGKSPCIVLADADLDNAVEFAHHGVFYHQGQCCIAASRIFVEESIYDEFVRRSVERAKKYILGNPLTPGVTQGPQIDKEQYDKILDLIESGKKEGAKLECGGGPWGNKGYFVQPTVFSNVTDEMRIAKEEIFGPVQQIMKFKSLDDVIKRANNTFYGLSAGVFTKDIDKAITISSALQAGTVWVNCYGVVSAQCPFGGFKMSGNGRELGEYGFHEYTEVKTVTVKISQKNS

In the case of `CN(C)CCC(=O)c1ccc(Br)cc1` [Aldi-6, 3-(Dimethylamino)-4′-bromopropiophenone], the IC50 (usually the point on the concentration scale where inhibition reaches its midpoint) on ALDH3A1 came to 1000 nM; at ALDH2, 800 nM; at ALDH1A1 it was 600 nM.
